Experimental data taken from US5317086A, “Cysteine proteinase inhibitors and inhibitor precursors” (The Regents of the University of California, priority 1992, dated 1994).
Non-standard residues stand in square brackets, D forms with d. Residues, ends and D or L forms follow the SMILES beside them. ξ: configuration not given here. *: point of attachment. MeOSuc = COC(=O)CCC(=O)*; ξF = NC(Cc1ccccc1)C(=O)O

Target: T1, papain (Carica papaya, UniProt P00784)
T1 construct: purchased Sigma
T1 sequence (P00784 134-345): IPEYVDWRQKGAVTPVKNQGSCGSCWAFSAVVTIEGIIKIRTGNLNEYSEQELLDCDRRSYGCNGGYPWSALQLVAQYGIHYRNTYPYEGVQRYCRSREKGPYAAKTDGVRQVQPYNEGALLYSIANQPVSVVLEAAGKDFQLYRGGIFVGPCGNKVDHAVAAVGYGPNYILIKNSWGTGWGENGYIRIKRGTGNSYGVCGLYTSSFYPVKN
Assay: Irreversible inhibition of papain (preincubation and 3000-fold dilution assay)
Assay type: biochemical
Details: control; 0.020 μM (666Ki) incubated with papain, diluted to (0.2 Ki); over 2.5 hr
Protocol: Papain (Sigma, 2x recrystallized) (1 mg/mL) was activated at 25° C. for 30 min prior to use in a solution of 0.1mM EDTA, 0.5 mM L-cysteine hydrochloride, and 0.06 mM mercaptoethanol, and was then diluted (20 μL to 1.0 mL) and stored at 4° C. for use in the assays. The cysteine and mercaptoethanol buffers were prepared fresh daily. The standard assay conditions consisted of 50 mM phosphate, 0.2 M NaCl, 5 mM EDTA, 2 mM dithiothreitol (DTT), 0.2% bovine serum albumin (BSA) and 20% CH3 CN, pH 6.5. However, these concentrations were obtained by dilution of a buffer of 100 mM phosphate, 0.4 M NaCl, 10 mM EDTA, 4 mM DTT at pH 6.5 to a final volume of 1 mL with the necessary amounts of CH3 CN and H2 O. The DTT and BSA were added fresh daily to the phosphate buffer. Kinetic measurements were performed by monitoring the fluorescence of 7-amino-4-methylcoumarin (MCA) [1 (excitation) 350 nm, 1 (emission) 460 nm] released upon hydrolysis of the substrate, CbzPheArgMCA. […] The Km was determined in duplicate runs by fitting rate vs. [S] using the program ENZFITTER. […]
The incomplete deactivation can be attributed to the increasing amounts of aldehyde present over time, which as a reversible inhibitor protects papain against alkylation. The dilution assay also provided evidence that the inhibition measured in the reversible assay was not due to trace amounts of aldehyde contamination. […]

COC(=O)CCC(=O)NC(Cc1ccccc1)C(=O)NCC=O (stereo not shown) [MeOSucPheGlyCHO] (MeOSuc-[ξF]-Gly-aldehyde)
loss of papain activity: 8%
